Data as given in publication PMC8482815, “Targeting Host Glycolysis as a Strategy for Antimalarial Development” (Frontiers in Cellular and Infection Microbiology, 2021).
Values joined by “and” are separate entries in the source; they are usually repeats but may differ in a detail not shown here. Equal values may be shown once.

Tested on: human erythrocytes
Experiment: Untargeted metabolomics and 13C-glucose tracing of enolase inhibitor treated erythrocytes
Assay type: cell-based
Conditions: 0.5h
Description: Freshly collected erythrocytes were washed, resuspended to 10% hematocrit in buffer [25mM HEPES (pH 7.4), 120mM NaCl, 5.4mM KCl, 1.8mM CaCl2, and 1mM NaH2PO4], incubated for 1 hour at 37°C, then centrifuged at 2000xg for 5 minutes at 4°C, resuspended in fresh wash buffer to 30-40% hematocrit, and split into 210µL aliquots of packed erythrocytes. […] All samples were incubated at 37°C shaking at 500 RPM. Triplicate samples of supernatants and packed erythrocytes were collected at 0, 0.5, 1, and 6-hour intervals and snap-frozen in liquid N2.
RBC and media samples were extracted at 1:10 and 1:20 dilutions, respectively, in 5:3:2 MeOH : MeCN:H2O v/v/v, and supernatants analyzed on a Thermo Vanquish UHPLC coupled to a Thermo Q Exactive mass spectrometer, as extensively described ([Nemkov et al., 2015]; [Nemkov et al., 2017]). The extraction buffer was supplemented with 40uM 3-^13C lactate to allow absolute quantification of lactate isotopologues, including lactate generated via glycolysis ([1,2,3-^13C3] enriched) vs. the pentose phosphate pathway ([2,3-^13C2] enriched), as described ([Reisz et al., 2016]). Metabolite assignments, peak area integration and isotopologues distributions were determined using Maven (Princeton University) ([Nemkov et al., 2015]; [Nemkov et al., 2017]).
Data were auto-scaled and normalized to zero-hour time points. Metabolites were removed from the dataset if greater than 50% of the samples contained missing values or the relative standard deviation among replicates exceeded 25%. Additionally, data was filtered using the interquartile range to reduce near-constant values from the experiment by 5%.
A principal component analysis of preprocessed data was plotted with the 95% confidence interval minimum volume enclosing ellipsoid for each respective group (MetaboAnalyst, cluster, plotly). A two-way repeated measures analysis of variance (ANOVA) was performed with multiple comparisons corrected for using a false discovery rate p-value cutoff of 0.05. Metabolite-Pathway analysis was performed using the R package of MetaboAnalyst, as previously described ([Xia and Wishart, 2010]). Metabolite-Protein nodal analysis was performed using omicsnet.ca and as previously described ([Zhou and Xia, 2018]).

[1] = treated erythrocytes, one value per replicate sample, polarity +
[2] = treated erythrocytes, one value per replicate sample, polarity -
[3] = treated erythrocytes, replicate samples

Structure (SMILES): CC(C)(C)C(=O)OCOP(=O)(OCOC(=O)C(C)(C)C)C1CC(O)N(O)C1=O (stereo not shown) [POMSF]
- AMP level (metabolomics signal) (replicate samples): 2.22E+06 and 1.69E+06 and 1.24E+06
- ATP level (metabolomics signal) (replicate samples): 6.37E+03 and 8.43E+03 and 5.73E+03
- Adenine level (metabolomics signal) (replicate samples): 1.92E+05 and 1.77E+05 and 1.67E+05
- Cytosine level (metabolomics signal) (replicate samples): 5.62E+05 and 5.81E+05 and 5.75E+05
- L-alanine level (metabolomics signal) (replicate samples): 8.49E+06 and 9.99E+06 and 1.01E+07
- L-arginine level (metabolomics signal) (replicate samples): 8.18E+06 and 5.94E+06 and 8.91E+06
- L-asparagine level (metabolomics signal) (replicate samples): 3.70E+06 and 4.01E+06 and 4.49E+06
- L-aspartate level (metabolomics signal) (replicate samples): 3.38E+07 and 3.70E+07 and 4.18E+07
- L-cysteine level (metabolomics signal) (replicate samples): 5.61E+05 and 2.55E+05 and 1.58E+05
- L-glutamate level (metabolomics signal) (replicate samples): 3.26E+07 and 3.43E+07 and 3.68E+07
- L-glutamine level (metabolomics signal) (replicate samples): 3.77E+07 and 4.04E+07 and 5.11E+07
- L-histidine level (metabolomics signal) (replicate samples): 1.39E+06 and 1.38E+06 and 1.35E+06
- L-isoleucine level (metabolomics signal) (replicate samples): 1.79E+07 and 1.67E+07 and 1.69E+07
- L-leucine level (metabolomics signal) (replicate samples): 1.70E+08 and 1.83E+08 and 2.03E+08
- L-lysine level (metabolomics signal) (replicate samples): 2.70E+06 and 2.39E+06 and 2.59E+06
- L-methionine level (metabolomics signal) (replicate samples): 1.52E+07 and 1.66E+07 and 1.85E+07
- L-phenylalanine level (metabolomics signal) (replicate samples): 8.08E+06 and 8.86E+06 and 1.12E+07
- L-proline level (metabolomics signal) (replicate samples): 4.22E+07 and 3.45E+07 and 3.96E+07
- L-serine level (metabolomics signal) (replicate samples): 2.93E+06 and 2.66E+06 and 3.79E+06
- L-threonine level (metabolomics signal) (replicate samples): 5.71E+06 and 5.05E+06 and 5.98E+06
- L-tryptophan level (metabolomics signal) (replicate samples): 5.93E+06 and 3.78E+06 and 4.71E+06
- L-tyrosine level (metabolomics signal) (replicate samples): 1.94E+07 and 2.09E+07 and 2.16E+07
- L-valine level (metabolomics signal) (replicate samples): 1.34E+08 and 1.45E+08 and 1.42E+08
- dCMP level (metabolomics signal) (replicate samples): 1.87E+04 and 1.84E+04 and 1.76E+04
- dTMP level (metabolomics signal) (replicate samples): 1.29E+06 and 8.42E+05 and 1.18E+06
- glycine level (metabolomics signal) (replicate samples): 1.56E+06 and 1.61E+06 and 1.75E+06
- N-Acyl-D-aspartate (C06380) metabolite signal [1]: 2.47E+05 and 3.01E+05 and 2.50E+05
- Poly-gamma-D-glutamate (C05723) metabolite signal [1]: 2.49E+07 and 2.77E+07 and 3.43E+07
- D-Ribitol 5-phosphate (C01068) metabolite signal [2]: 1.89E+04 and 2.70E+04 and 1.78E+04
- D-glucono-1,5-lactone (C00198) metabolite signal [2]: 5.20E+05 and 6.45E+05 and 5.70E+05
- L-Noradrenaline (C00547) metabolite signal [2]: 5.30E+04 and 6.26E+04 and 5.84E+04
- Oxalosuccinate (C05379) metabolite signal [2]: 1.60E+05 and 1.51E+05 and 1.30E+05
- Pyridoxamine (C00534) metabolite signal [2]: 4.35E+04 and 3.15E+04 and 3.96E+04
- Thioredoxin disulfide (C00343) metabolite signal [2]: 4.45E+04 and 2.53E+04 and 3.52E+04
- 1-4-beta-D-Xylan (metabolite signal) [3]: 2.42E+05 and 2.55E+05 and 2.51E+05
- 2-Hydroxyglutarate/Citramalate (C02630) metabolite signal [3]: 8.78E+04 and 9.72E+04 and 1.18E+05
- 5-6-Dihydrothymine (C00906) metabolite signal [3]: 3.10E+05 and 2.80E+05 and 2.87E+05
- 5-10-Methenyltetrahydrofolate (metabolite signal) [3]: 3.54E+05 and 4.17E+05 and 3.24E+05
- 5-Hydroxyisourate (C11821) metabolite signal [3]: 5.17E+06 and 5.16E+06 and 5.68E+06
- 5-L-Glutamyl-taurine (metabolite signal) [3]: 1.45E+05 and 1.54E+05 and 1.36E+05
- 5-Oxoproline (metabolite signal) [3]: 8.54E+05 and 9.65E+05 and 9.67E+05
- (S)(+)-Allantoin (C02350) metabolite signal [3]: 4.35E+04 and 3.58E+04 and 0.00E+00
- Allantoate (C00499) metabolite signal [3]: 2.71E+05 and 2.04E+05 and 2.56E+05
- Ascorbate (metabolite signal) [3]: 9.30E+04 and 6.85E+04 and 1.08E+05
- CMP-N-acetylneuraminate (metabolite signal) [3]: 1.38E+04 and 2.26E+04 and 3.45E+04
- Carnosine (metabolite signal) [3]: 2.64E+05 and 2.93E+05 and 2.91E+05
- Citrate (C00158) metabolite signal [3]: 2.63E+04 and 3.23E+04 and 3.56E+04
- Creatine (metabolite signal) [3]: 2.99E+08 and 3.28E+08 and 3.02E+08
- Creatinine (metabolite signal) [3]: 3.46E+06 and 3.25E+06 and 2.95E+06
- Cys-Gly (metabolite signal) [3]: 2.55E+06 and 2.28E+06 and 2.13E+06
- D-Glucosamine (metabolite signal) [3]: 1.73E+05 and 2.02E+05 and 1.88E+05
- D-Glucose (C00031) metabolite signal [3]: 6.07E+06 and 5.64E+06 and 6.25E+06
- D-Ribose (C00121) metabolite signal [3]: 1.75E+05 and 2.10E+05 and 1.84E+05
- Dehydroascorbate (metabolite signal) [3]: 1.78E+04 and 9.28E+03 and 1.77E+04
- Dihydrofolate (metabolite signal) [3]: 1.24E+06 and 6.72E+05 and 1.27E+06
- Dimethylglycine (metabolite signal) [3]: 1.14E+06 and 1.17E+06 and 1.06E+06
- Diphosphate (C00013) metabolite signal [3]: 3.26E+03 and 1.34E+03 and 1.52E+03
- Fumarate (C00122) metabolite signal [3]: 1.08E+05 and 1.33E+05 and 1.27E+05
- Glutathione (C00051) metabolite signal [3]: 1.64E+08 and 1.52E+08 and 1.45E+08
- Glutathione disulfide (metabolite signal) [3]: 1.36E+05 and 2.52E+05 and 3.91E+05
- Hypoxanthine (C00262) metabolite signal [3]: 6.53E+04 and 4.36E+04 and 3.66E+04
- IMP (C00130) metabolite signal [3]: 9.13E+04 and 0.00E+00 and 4.11E+04
- Inosine (C00294) metabolite signal [3]: 9.07E+04 and 1.09E+05 and 1.15E+05
- L-Citrulline (metabolite signal) [3]: 3.18E+06 and 3.52E+06 and 3.48E+06
- L-Homoserine (metabolite signal) [3]: 2.14E+05 and 2.01E+05 and 2.23E+05
- Lactate (C01432) metabolite signal [3]: 9.04E+06 and 8.73E+06 and 8.57E+06
- Malate (C00149) metabolite signal [3]: 1.84E+05 and 2.15E+05 and 2.30E+05
- Mannitol (C00392) metabolite signal [3]: 1.48E+05 and 1.43E+05 and 1.44E+05
- N-Acetylneuraminate (metabolite signal) [3]: 2.84E+04 and 2.76E+04 and 2.63E+04
- N-Glycoloyl-neuraminate (metabolite signal) [3]: 1.80E+05 and 1.43E+05 and 1.72E+05
- NAD+ (C00003) metabolite signal [3]: 7.76E+04 and 1.99E+05 and 4.14E+05
- Nicotinamide (C00153) metabolite signal [3]: 3.69E+07 and 3.94E+07 and 3.72E+07
- Ornithine (metabolite signal) [3]: 2.34E+06 (2×) and 2.32E+06
- Oxaloacetate (C00036) metabolite signal [3]: 4.10E+04 and 3.82E+04 and 3.53E+04
- Phosphoserine (metabolite signal) [3]: 5.43E+04 and 2.60E+05 and 7.13E+04
- Putrescine (metabolite signal) [3]: 8.30E+04 and 7.12E+04 and 6.80E+04
- Pyridoxal (C00250) metabolite signal [3]: 7.95E+04 and 8.76E+04 and 8.42E+04
- Pyruvate (C00022) metabolite signal [3]: 6.67E+05 and 7.32E+05 and 6.75E+05
- S-Glutathionyl-L-cysteine (metabolite signal) [3]: 6.44E+04 and 8.58E+04 and 2.21E+05
- Sedoheptulose 1-phosphate (C06222) metabolite signal [3]: 1.56E+04 and 1.68E+04 and 1.80E+04
- Spermidine (metabolite signal) [3]: 9.65E+06 and 9.19E+06 and 9.18E+06
- Spermine (metabolite signal) [3]: 9.74E+06 and 8.90E+06 and 1.00E+07
- Succinate (C00042) metabolite signal [3]: 9.57E+04 and 9.51E+04 and 9.45E+04
- Thymidine (C00214) metabolite signal [3]: 1.34E+04 and 1.17E+04 and 1.87E+04
- UDP (C00015) metabolite signal [3]: 2.09E+05 and 1.18E+05 and 1.38E+05
- UDP-N-acetyl-D-glucosamine (metabolite signal) [3]: 1.55E+04 and 2.01E+04 and 2.26E+04
- UDP-glucose (C00029) metabolite signal [3]: 3.09E+04 and 3.55E+04 and 4.15E+04
- Urate (C00366) metabolite signal [3]: 3.51E+04 and 2.72E+04 and 2.68E+04
- Xanthine (C00385) metabolite signal [3]: 3.66E+05 and 3.57E+05 and 3.29E+05
- alpha-D-Glucosamine 1-phosphate (metabolite signal) [3]: 2.09E+06 and 2.40E+06 and 2.18E+06
- alpha-D-Ribose 1-phosphate (C00620) metabolite signal [3]: 1.08E+05 and 8.84E+04 and 1.07E+05
- gamma-Glutamyl-gamma-aminobutyrate (metabolite signal) [3]: 9.93E+04 and 1.32E+05 and 1.00E+05
- gamma-L-Glutamyl-D-alanine (metabolite signal) [3]: 3.99E+04 and 3.09E+04 and 3.31E+04
- gamma-L-Glutamyl-L-cysteine (metabolite signal) [3]: 1.39E+04 and 2.39E+04 and 2.36E+04
